Experimental data from patent US10611772B2, “Crystalline form of Ribociclib succinate” (Apotex Inc., priority 2018, dated 2020).

Tests used:
[1] = CHMP Assessment Report for KISQALI; anhydrous form; cited from earlier work
[2] = cited from earlier work; for Hygroscopicity: as reported in the prior art or the CHMP report
[3] = Comparative intrinsic dissolution testing (Wood apparatus); format: physicochemical; details: 400 mg sample compressed at 1.5 metric tons for 1 minute, 900 mL 0.01 N HCl buffer, 75 rpm
Method: Intrinsic dissolution rate (IDR) measurements were performed using a Wood apparatus. Samples were prepared by compressing 400 mg sample at 1.5 metric tons for 1 minute. A dissolution medium consisting of 900 mL 0.01 N HCl buffer, and rotation speed of 75 rpm, was used for each experiment.

Intrinsic Dissolution Rate [3] [mg min^−1 cm^−2] | Structure (SMILES) | BCS Class [1] | Solubility (BCS assessment) [1] | Hygroscopicity [2] | Form conversion upon exposure to high humidity levels ([2]; WO 2012/064805 A1)
– | CN(C)C(=O)c1cc2cnc(Nc3ccc(N4CCNCC4)cn3)nc2n1C1CCCC1 [Ribociclib succinate, 7-cyclopentyl-N,N-dimethyl-2-{[5-(piperazin-1-yl)pyridin-2-yl]amino}-7H-pyrrolo[2,3-d]pyrimidine-6-carboxamide] | Class IV | low solubility | exhibits hygroscopicity | –
1.9520 | CN(C)C(=O)c1cc2cnc(Nc3ccc(N4CCNCC4)cn3)nc2n1C1CCCC1.O=C(O)CCC(=O)O [Ribociclib succinate non-hydrate form] | – | – | hygroscopic | converts to the hydrate form
